Laboratory results reported in patent publication US7833532B2, “Immunogenic lipopeptides comprising T-helper and cytotoxic T lymphocyte (CTL) epitopes” (The Council of The Queensland Institute of Medical Research, priority 2002, dated 2010).

Test system: D1 cells
Assay: Maturation of D1 dendritic cells (surface MHC class II, flow cytometry)
Type: cell-based, BALB/c mouse
Conditions: overnight incubation, 0.45 nmoles/mL; […]

In the case of “ALNNRFQIKGVELKSKTYQRTRALV [[Th]-Lys-[CTL]]”, the “maturation of D1 cells (percentage expressing high levels of surface MHC class II)” value is reported as no more than 26%.
